Measured values from US7589077B2, “Antiviral nucleosides” (priority 2001, dated 2009).
Converted amounts (≈) assume the structure as drawn. Like-named read-outs stand apart in the source and are kept apart here.

Legend:
HFF cells [1] = test: Cell proliferation assay in HFF cells; assay type: cell-based, human; conditions: Table 2; for IC50: Homo sapiens, HFF
Experimental: The media from the wells was then aspirated and 2 mL of each drug concentration was then added to each well. The cells were incubated in a CO2 incubator at 37° C. for 72 h. At the end of this time, the media-drug solution was removed and the cells were washed. […] The cell-media mixture was then pipetted up and down vigorously to break up the cell suspension and 0.2 mL of the mixture was added to 9.8 mL of isoton III and counted using a Coulter Counter. Each sample was counted three times with three replicate wells per sample.

human HBV = test: HBV DNA replication in HepG2 2.2.15 cells; assay type: cell-based, hepatitis B virus
Experimental: The compounds were assayed for a) their ability to inhibit DHBV DNA replication in duck hepatocytes, b) their ability to inhibit HBV DNA replication in HepG2 2.2.15 cells, c) the cell cytotoxicity in Vero cells, the cell viability in HFF cells, d) the cell proliferation in HFF cells, and e) the T cell proliferation (purified T cells, PHA stimulated). 3-TC was used as a control. Additional compounds described below in the Preparative Examples section were also tested, and the results are shown in Tables 2-4 below. The reference numbers for the compounds are found in the Preparative Examples.

HFF cells [2] = test: Cell viability in HFF cells (neutral red); assay type: cell-based, human
Experimental: (§1) Twenty-four hours prior to assay HFF cells were plated into 96 well plates at a concentration of 2.5×10^4 cells per well. […] The plates were incubated for 7 days in a CO2 incubator at 37° C. At this time the media/drug was aspirated and 200 μL/well of 0.01% neutral red in Dulbecco's Phosphate Buffered Saline (DPBS) was added. This was incubated in the CO2 incubator for 2 h, the dye was aspirated and the cells were washed using a Nunc Plate Washer. After removing the DPBS wash, […] of 50% EtOH: 1% glacial acetic acid in water was added. The plates were rotated for 15 min. and the optical densities were read at 550 nm on a plate reader.

[3] = test system: duck hepatitis B virus (DHBV); test: DHBV DNA replication in primary duck hepatocytes (dot blot hybridization); assay type: cell-based
Experimental: A series of compounds were synthesized and assayed for activity against duck hepatitis B virus (DHBV). […] Test compounds were added to the hepatocyte cultures on day 2 and maintained in culture with media changed every second day until day 12. Cell were harvested at day 14 and lysed with buffer containing 1% SDS. DNA was isolated from the lysate and dot blot hybridization was performed using a DHBV (32P) DNA probe. […]
(§2) The compounds were assayed for a) their ability to inhibit DHBV DNA replication in duck hepatocytes, b) their ability to inhibit HBV DNA replication in HepG2 2.2.15 cells, c) the cell cytotoxicity in Vero cells, the cell viability in HFF cells, d) the cell proliferation in HFF cells, and e) the T cell proliferation (purified T cells, PHA stimulated). 3-TC was used as a control.

Vero cells = test: Cell cytotoxicity in Vero cells; assay type: cell-based
Experimental: as §2

[4] = Cell viability in HFF cells (neutral red); assay type: cell-based, human; conditions: human, HFF cells
Experimental: as §1

VZV (Ellen) = test: CPE inhibition assay VZV (Ellen) in HFF cells; assay type: cell-based, varicella zoster virus; conditions: Human alphaherpesvirus 3, HFF, Table 2
Experimental: (§3) Cytopathic effect (CPE) inhibition assays for HSV-1, HSV-2, HCMV and VZV were performed as follows: Low passage human foreskin fibroblasts (HFF) cells were seeded into 96 well tissue culture plates 24 h prior to use at a cell concentration of 2.5×10^4 cells per mL in 0.1 mL of minimal essential medium (MEM) supplemented with 10% fetal bovine serum (FBS). The cells were then incubated for 24 h at 37° C. in a CO2 incubator. After incubation, the medium was removed and 100 μL of MEM containing 2% FBS was added to all but the first row. In the first row, 125 μL of experimental drug was added in triplicate wells. Medium alone was added to both cell and virus control […]. After incubation, the medium was removed and 100 μl of MEM containing 2% FBS was added to all but the first row. Medium alone was added to both cell and virus control wells. 125 μl of Experimental drug was added in triplicate wells. The drug in the first row of wells was then diluted serially 1:5 throughout the remaining wells by transferring 25 μL using the Cetus Liquid Handling Machine. After dilution of drugs, 100 μL of the appropriate virus concentration was added to each well, excluding the cell control wells which received 100 μL of MEM. For HSY-1 and HSV-2 assays, the virus concentration utilized was 1000 PFU's per well. For CMV and VZV assays, the virus concentration added was 2500 PFU's per well. The plates were then incubated at 37° C. in a CO2 incubator for 3 days for HSV-1 and HSV-2, 10 days for VZV, or 14 days for CMV. After the incubation period, media was aspirated and the cells stained with a 0.1% crystal violet solution for 30 min. The stain was then removed and the plates were allowed to dry 24 h and then read on a Skatron Plate Reader at 620 nm.

HCMV (AD169) = test: CPE inhibition assay HCMV (AD169) in HFF cells; assay type: cell-based, human cytomegalovirus; conditions: Human betaherpesvirus 5, AD169, HFF; Table 2
Experimental: as §3

[5] = Cell cytotoxicity in Vero cells; assay type: cell-based; conditions: African green monkey, Vero cells
Experimental: as §2

Epstein-Barr Virus (EBV) = test: EBV immunofluorescence assay in DAUDI cells (P3HR-1 strain); assay type: cell-based
Experimental: The immunofluorescence assay, using monoclonal antibodies, for Epstein-Barr Virus (EBV) was performed as follows: DAUDI cells were infected with the P3HR-1 strain of EBV and the test drug was added after adsorption (45 min. at 37° C.) and washing of the cell cultures. These cultures were then incubated for 2 days in complete medium to allow viral gene expression. Following the 48 h incubation period, the number of cells in each sample were counted and smears were made. Monoclonal antibodies to the different early antigen (EA) components and VCA were than added to the cells, incubated and washed. This was followed by the addition of a fluorescein conjugated rabbit anti mouse Ig antibodies. The number of fluorescence positive cells in the smears were counted and the total number of cells in the cultures positive for EA or VCA were then calculated and compared.

HSV-1 (KOSSB) HSV-TK− = test: microbe, parasite or virus in culture; assay type: cell-based, Herpes simplex virus type-1; conditions: Table 4
Experimental: as §3, with “The” for “Cytopathic effect (CPE) inhibition assays for HSV-1, HSV-2, HCMV and VZV were performed as follows: Low passage human foreskin fibroblasts (HFF) cells were seeded into 96 well tissue culture plates 24 h prior to use at a cell concentration of 2.5×10^4 cells per mL in 0.1 mL of minimal essential medium (MEM) supplemented with 10% fetal bovine serum (FBS). The”

HSV-1 (KOS) HSV-TK+ = HSV-1 (KOS) HSV-TK+ antiviral assay; assay type: cell-based, Herpes simplex virus type-1; conditions: Table 4
Experimental: as §3

[6] = Duck hepatitis B virus, Hepatocyte, read-out: % Inh. of DHBV DNA in duck hepatocytes @ 10 μg/ml
[7] = Duck hepatitis B virus, Hepatocyte, Table 2, value in brackets, read-out: DHBV DNA in duck hepatocytes [EC50, μg/ml]

| SMILES | IC50 (HFF cells [1]) [µg/mL] | CC50 at 7 days ([4]; Table 2) [µg/mL] | EC50 (VZV (Ellen)) [µg/mL] | inhibition at 10 µg/mL [3, 6] [%] | EC50 [3, 7] [µg/mL] | EC50 (HCMV (AD169)) [µg/mL] | CC50 ([5]; Table 2) [µg/mL] | other results |
| --- | --- | --- | --- | --- | --- | --- | --- | --- |
| C=C(N=[N+]=[N-])c1cn(COC(CO)CO)c(=O)[nH]c1=O [Compound 13] | – | – | – | – | – | – | – | Cell proliferation, HFF cells IC50 (HFF cells [1]): >100 µg/mL; % Inh. of human HBV DNA replication in HepG2 2.2.15 cells @ 0.01 μg/ml (right) (human HBV; Table 2, 0.01 μg/ml): 17.0%; % Inh. of human HBV DNA replication in HepG2 2.2.15 cells @ 0.1 μg/ml (left) (human HBV; Table 2, 0.1 μg/ml): 75.4%; Cell viability HFF cells CC50 (HFF cells [2]; Table 2): >100 µg/mL; DHBV DNA in duck hepatocytes [EC50, μg/ml] ([3]; Table 2, value in brackets): 0.01 to 0.1 µg/mL; % Inh. of DHBV DNA in duck hepatocytes @ 10 μg/ml ([3]; Table 2, 10 μg/ml): 85.6%; Cell Cytotoxicity, Vero cells CC50 (Vero cells; Table 2): >200 µg/mL |
| [N-]=[N+]=NC(CCl)c1cn(COC(CO)CO)c(=O)[nH]c1=O (stereo not drawn) [Compound 10b, 1-[(2-Hydroxy-1-(hydroxymethyl)ethoxy)methyl]-5-(1-azido-2-chloroethyl)uracil] | > 100 | > 100 | 5 (≈ 15.6 µM) | 75 | 1 to 5 | 10 (≈ 31.3 µM) | > 200 | – |
| [N-]=[N+]=NC(CCl)c1cn(CCC(CO)CO)c(=O)[nH]c1=O (stereo not drawn) [Compound 21b, 1-[4-Hydroxy-3-(hydroxymethyl)-1-butyl]-5-(1-azido-2chloroethyl)uracil] | > 100 | > 100 | 6 (≈ 18.9 µM) | 84 | 0.1 to 0.5 | 1 (≈ 3.15 µM) | > 200 | – |
| CCC1(F)C(=O)NC(=O)N([C@@H]2O[C@H](CO)[C@@H](O)[C@@H]2F)C1OC (stereo partly drawn) [RC-1, 5-Ethyl-5-fluoro-6-methoxy-5,6-dihydro-2′-arabinofluoro-2′-deoxyuridine] | – | – | – | – | – | – | – | Cell viability HFF cells CC50 (HFF cells [2]; Table 5): >100 µg/mL; EBV EC50 (Epstein-Barr Virus (EBV); Table 5): <0.08 µg/mL; EBV EC90 (Epstein-Barr Virus (EBV); Table 5, in parentheses): (EC90 = <0.08) μg/ml; Cell Cytotoxicity, Vero cells CC50 (Vero cells; Table 5): >100 µg/mL |
| [N-]=[N+]=NC(CI)c1cn(COC(CO)CO)c(=O)[nH]c1=O (stereo not drawn) [Compound 10c, 1-[(2-Hydroxy-1-(hydroxymethyl)ethoxy)methyl]-5-(1-azido-2-iodoethyl)uracil] | > 100 | > 100 | 1 (≈ 2.43 µM) | 75 | 1 to 5 | 10 (≈ 24.3 µM) | > 200 | – |
| Nc1ccn([C@@H]2CS[C@H](CO)O2)c(=O)n1 [Compound 3-TC, lamivudine, reference compound] | – | – | – | 96 | 0.01 to 0.05 | – | – | inhibition at 0.1 µg/mL (human HBV; Hepatitis B virus, HepG2 2.2.15, read-out: % Inh. of human HBV DNA replication in HepG2 2.2.15 cells @ 0.1 μg/ml (left)): 90%; CC50 at 7 days ([4]; Table 5): > 100 µg/mL; inhibition at 1 µg/mL ([3]; Duck hepatitis B virus, Hepatocyte, read-out: % Inhibition of DHBV DNA in duck hepatocytes @1.0 μg/ml): 95%; inhibition at 10 µg/mL ([3]; Duck hepatitis B virus, Hepatocyte, read-out: % Inhibition of DHBV DNA in duck hepatocytes @10.0 μg/ml): 100%; EC50 ([3]; Duck hepatitis B virus, Hepatocyte, Table 3a, read-out: % Inhibition of DHBV DNA in duck hepatocytes EC50): 70 nM; CC50 ([5]; Table 5): > 100 µg/mL |
| C=C(N=[N+]=[N-])c1cn(CCC(CO)CO)c(=O)[nH]c1=O [Compound 26, 1-[4-Hydroxy-3-(hydroxymethyl),1-butyl]-5-(1-azidovinyl)uracil] | > 100 | > 100 | – | 93 | 0.01 to 0.05 | – | > 200 | – |
| CC1(F)C(=O)NC(=O)N2C3CC(N=[N+]=[N-])C(COC21)O3 [Compound R-13, (5R,6S)5-fluoro-O^6-5′-cyclo-5,6-dihydro-3′-azido-3′-deoxythymidine] | – | – | – | – | – | – | – | HSV-1 (KOSSB) HSV-TK− EC50 (HSV-1 (KOSSB) HSV-TK−): >50 µg/mL; HSV-1 (KOS) HSV-TK+ EC50 (HSV-1 (KOS) HSV-TK+): >25 µg/mL; % Inhibition of DHBV DNA replication in duck hepatocytes @10 μg/ml [3]: 36.0%; CC50 (Vero cells; Table 1): > 700 µM |
| C=C(N=[N+]=[N-])c1cn(COCCO)c(=O)[nH]c1=O [Compound 7, 1-[(2-hydroxyethoxy)methyl]-5-(1-azidovinyl)-uracil] | > 100 | > 100 | – | 84 | 0.01 to 0.1 | – | > 100 | – |
